Data set [1] in a line: Compound exposure in plasma and liver of HFHC fed male mice. The class given is in vivo. The conditions noted are these: C57BL/6J, mouse, oral; for Kp at 4 h: liver/plasma, 4 hours after last dose on day 28, read-out: Ratio (liver to plasma exposure).
Data set [2] can be described thus: Metabolism in human microsomes. Format: in vitro ADME. The settings on record: 37° C. How it is done: Microsomal mixes (247.5 μL) of human microsomes (1250 μL, 4 mg/ml), potassium phosphate buffer (1250 μL), alamethecin (12.5 μL, 5 mg/ml) and cofactors Nicotinamide Adenine Dinucleotide Phosphate NADPH (1250 μL, 4 mM)/uridine 5′-diphospho-glucuronic acid UDPGA (1250 μL, 4 mM) or UDPGA only were loaded onto a shaker for 10 minutes. The test compound (2.5 μL, 100 μM) was then separately added to both microsomal mixes (i.e., one mix with NADPH and one mix without NADPH), incubated at 37° C. and sampled at predetermined time points. Analysis was performed using a AB SCIEX QTRAP 4500 LC-MS/MS, a Kinetex C18, 50*4.6 mm, 5 μm column and eluting with 10 mM Ammonium Acetate/Methanol.
Table 3 summarizes the % of compound remaining after 45 minutes of incubation with human microsomes either in the presence of co-factors UDPGA and NADPH or UDPGA only.

In data set [3] the target is T1, Human FXR receptor (NR1H4) (Homo sapiens, UniProt Q96RI1).
T1 sequence (Q96RI1 1-486): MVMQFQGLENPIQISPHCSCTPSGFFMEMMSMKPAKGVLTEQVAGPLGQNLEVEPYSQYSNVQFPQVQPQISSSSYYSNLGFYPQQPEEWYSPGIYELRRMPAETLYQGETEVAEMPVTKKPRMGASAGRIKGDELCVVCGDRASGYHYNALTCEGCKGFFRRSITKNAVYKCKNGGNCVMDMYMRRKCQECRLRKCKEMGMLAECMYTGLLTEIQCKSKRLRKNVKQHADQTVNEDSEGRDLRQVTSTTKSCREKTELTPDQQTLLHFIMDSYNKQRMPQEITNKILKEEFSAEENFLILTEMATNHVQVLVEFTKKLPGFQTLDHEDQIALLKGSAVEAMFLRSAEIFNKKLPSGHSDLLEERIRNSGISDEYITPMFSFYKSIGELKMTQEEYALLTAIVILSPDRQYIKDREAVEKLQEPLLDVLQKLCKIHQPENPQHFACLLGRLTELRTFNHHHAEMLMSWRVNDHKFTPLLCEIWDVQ
As to the kind of experiment: Human Farnesoid X Receptor (NR1H4, FXR) reporter assay. Format: cell-based. From the text: Determination of a ligand mediated Gal4 promoter driven transactivation to quantify ligand binding mediated activation of FXR. A FXR Reporter Assay kit was purchased from Indigo Bioscience (#IB00601-32) to determine the potency and efficacy of compounds that can induce FXR activation. The nuclear receptor assay system utilizes non-human mammalian cells engineered to provide constitutive high level expression of Human FXR receptor (NR1H4), a ligand-dependent transcription factor. The reporter cells include luciferase reporter gene functionality linked to an FXR-response promoter. Quantifying changes in luciferase expression in the treated reporter cells provides a sensitive surrogate measure of the changes in FXR activity. […] Luminescence intensity of the reaction is quantified using a luminometer, and is reported in terms of Relative Light Units (RLU's). […] After incubation, the media was carefully removed, Luciferase detection solution was added and the plate read in a Luminometer. The data was calculated as per kit instructions, with increases in luminescence being directly proportional to increases in compound agonist activity.
A general note: In a reporter assay the amount or activity of a reporter protein is the signal.

The nature of data set [4]: Metabolic identification in human hepatocytes. The class given is in vitro ADME. As for the experimental part: (§1) A 10 mM stock of test compound from Example 2 (sodium 2-(3-((5-cyclopropyl-3-(2-(trifluoromethoxy)phenyl)isoxazol-4-yl)methoxy)-8-azabicyclo[3.2.1]octan-8-yl)-4-fluorobenzo[d]thiazole-6-sulfinate) was prepared in DMSO. 20 μM of final working stock was then prepared by diluting 4 μL of 10 mM stock in 1996 μL of Krebs-Hensleit buffer. 200 μL of hepatocyte cell suspension (2×10^6 cells/mL) was added to TPP 48 well plate and preincubated for 30 min @ 37° C. in incubator. 200 μL of 20 μM working stock of test compound was added to the cell suspension and incubated in an incubator on vibramax at a shaking speed of 500 rpm. For the 0 min sample, 25 μL of hepatocyte suspension was precipitated with 200 μL of acetonitrile and 25 μL of 20 μM test compound was added. The reaction was stopped at 15, 30, 60, 90, 120 min by precipitating 50 μL of incubation mixture with 200 μL of acetonitrile. The samples were vortexed for 5 min at 1200 rpm and centrifuged at 4000 rpm for 10 min. The supernatant was separated, diluted 2 fold with water and analysed using a HPLC (Shimadzu SIL HTS) and mass spectrometer (5500 Qtrap). Acetonitrile and 0.1% formic acid in Milli-q-water were used as the mobile phase, using a column of either Waters Xbridge C18, 250×3.0 mm, 5.0μ particle size or Phenomnex kinetex 5μ EVO C18 100 A, 50×4.6 mm 5.0μ particle size.
Table 4 summarizes the major metabolites observed when the compound of Example 2 of the invention was incubated in human, dog or mouse hepatocytes.

For data set [5], the system named is HFHC fed male C57BL/6 mice. Put plainly: In-vivo efficacy in high fat high cholesterol diet (HFHC) fed male C57BL/6 mice. The conditions noted are these: oral, 3 mg/kg BID, 3 mg/kg QD and 10 mg/kg BID, after 28 days.
Method: C57BL/6J male mice were purchased at the age of 8 weeks. After an acclimation period of 1 week, animals were maintained on high fat high cholesterol diet (Research diets) with 60% kcal from fat plus 0.5% (w/w) extra cholesterol (Research diet, D02051401) for a period of 4 weeks. Age matched control animals (n=6) were maintained on normal chow. Mice were dosed with vehicle, test compounds and GW4064 morning (7.00 AM) and evening (5:00 PM) from day 0 to 27. At 28th day, animals were dosed at 7:00 AM and kept on fasting for next 4 hours before blood and tissues collection. Plasma samples separated from collected blood were stored at −20° C. immediately for estimation analysis. The samples were analyzed using the Siemens Dimension RxL Max Clinical chemistry analyzer.
Right liver lobe was used for the test compounds exposure, triglyceride and cholesterol estimation. Liver tissues were dissected, weighed and snap frozen and stored at −80° C. for further analysis of hepatic triglyceride, cholesterol and compound exposure. In brief, stored tissues were thawed to room temperature and triglycerides were extracted by homogenizing 25 mg of liver tissues in 1 ml of 5% Triton X100 (Lot No. 61K01741-Sigma Aldrich) in water. Homogenized tissues were slowly heated to 80° C. in water bath for 5 minutes. The samples were cooled down and again heated to solubilize all the triglycerides into solution. The samples were centrifuged for 5 minutes at 4000 RPM and supernatant was collected for quantification^3 using commercially available kit from ERBA (Lot No. B061832).
Homogenized samples were centrifuge at 13000 g for 10 minutes to remove insoluble material. The organic phase was separated into new tube and air dried at 50° C. to remove chloroform. Thereafter, samples were vacuumed for 30 minutes to remove residue organic solvent. Dried lipids were dissolved in 200 μL of cholesterol assay buffer (provided with Sigma cholesterol assay kit Lot No. B2J210603V), sonicated for 20 minutes and vortexed until mixture was homogenous as mentioned in kit protocol. Samples were diluted with cholesterol assay buffer at (1:10) ratio to fit in standard curve and finally 50 μL of diluted samples were used for the assay.
Compound levels were also measured in the plasma and liver to understand its distribution profile.
Data set [6] in a line: Metabolic identification in mouse hepatocytes. Format: in vitro ADME. The conditions noted are these: up to 120 min. How it is done:
as §1, with “size. […]” for “size.”

Data set [7] in a line: Metabolic identification in dog hepatocytes. The conditions noted are these: up to 120 min. The class given is in vitro ADME. As for the experimental part:
as §1, with “size. […]” for “size.”

SMILES strings stand for the structures. Read-outs that look alike come from different tables or passages of the source.

Regarding `O=S([O-])c1cc(F)c2nc(N3[C@@H]4CC[C@H]3C[C@@H](OCc3c(-c5ccccc5OC(F)(F)F)noc3C3CC3)C4)sc2c1.[Na+]` [Example 2, Sodium 2-(3-((5-cyclopropyl-3-(2-(trifluoromethoxy)phenyl)isoxazol-4-yl)methoxy)-8-azabicyclo[3.2.1]octan-8-yl)-4-fluorobenzo[d]thiazole-6-sulfinate], the concentration at 4 h was found to be 54.8 ng/g in data set [1] (liver, 3 mg/kg, 3 mg/kg BID oral, 4 hours after last dose on day 28, read-out: Mean compound exposure, Liver); 138 ng/g in data set [1] (liver, 10 mg/kg, 10 mg/kg BID oral, 4 hours after last dose on day 28, read-out: Mean compound exposure, Liver); 80.1 ng/g in data set [1] (liver, 10 mg/kg, 10 mg/kg QD oral, 4 hours after last dose on day 28, read-out: Mean compound exposure, Liver); 1 ng/mL in data set [1] (plasma, 3 mg/kg, 3 mg/kg BID oral, 4 hours after last dose on day 28, read-out: Mean compound exposure, Plasma); 2.1 ng/mL in data set [1] (plasma, 10 mg/kg, 10 mg/kg BID oral, 4 hours after last dose on day 28, read-out: Mean compound exposure, Plasma); 1.2 ng/mL in data set [1] (plasma, 10 mg/kg, 10 mg/kg QD oral, 4 hours after last dose on day 28, read-out: Mean compound exposure, Plasma). The Kp at 4 h is 54.8 in data set [1] (3 mg/kg, 3 mg/kg BID oral); 65.9 in data set [1] (10 mg/kg, 10 mg/kg BID oral); 66.8 in data set [1] (10 mg/kg, 10 mg/kg QD oral). In addition, in data set [2] (co-factor UDPGA only), the “% remaining @ 45 mins of incubation with UDPGA” value is given as 94%. Further, in data set [2] (co-factors UDPGA and NADPH), the “% remaining @ 45 mins of incubation with UDPGA and NADPH” value worked out at 52%. Further, the EC50 in data set [3] (Human FXR (NR1H4) luciferase reporter assay, 22-24 h) was 460 nM. In data set [3] (normalized to GW4064 set as 100%), this molecule came in with an Efficacy of 119%. For the same molecule, in data set [4] (120 mins), the “Major metabolite by MS/MS (FIG. 14)” value was “hydroxy compound”. In addition, the Acyl-Glucuronide result in data set [4] (up to 120 min), in data set [6] and in data set [7] was “No” each time. Besides, the “Observed Major Metabolites” value is “Hydroxy, Alkenyl and Alkenyl-hydroxy” in data set [4] (up to 120 min); “Hydroxy, Di-hydroxy and Alkenyl-hydroxy” in data set [6]. In data set [5], the “Cholesterol levels in the liver” value is on record as “reductions”. Besides, in data set [5], the “Cholesterol levels in the plasma” value is “reductions”. Moreover, in data set [5], the Liver triglycerides result is recorded as “reductions”.

The EC50 is the midpoint of the concentration-response curve.

For the origin of these results see patent US20230096663A1, “FARNESOID X RECEPTOR MODULATING COMPOUNDS AND METHODS OF USING THE SAME” (Inorbit Therapeutics AB, priority 2020, published 2023).
